Experiment: Cytotoxicity assay (AlamarBlue) in mock infected MT-2 cells
Type: cell-based
Conditions: human
Method in brief: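 MT-2 cells at 2×10^4 cells/well, mock-infected, treated with 3-fold serial compound dilutions for 96 h at 37 °C. AlamarBlue added for 3 h, fluorescence read at 545/590 nm; % inhibition versus solvent control fitted to a 4-parameter logistic to give CC50.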

Row | Compound | CC50 at 96 h [µM]
1 | CCc1cc(OC)c(OCc2ccccc2)cc1/C=C/C1NCCc2cc(OCc3ccccc3)c(OC)cc21 (stereo not drawn) [Example AA, 6-benzyloxy-1-[(E)-2-(5-benzyloxy-2-ethyl-4-methoxy-phenyl)vinyl]-7-methoxy-1,2,3,4-tetrahydroisoquinoline] | 3.89
2 | CCOC(=O)c1coc(-c2ccc(/C=C/C3NCCc4cc(OCc5ccccc5)c(OC)cc43)cc2)n1 (stereo not drawn) [EE, ethyl 2-{4-[(E)-2-[6-(benzyloxy)-7-methoxy-1,2,3,4-tetrahydroisoquinolin-1-yl]ethenyl]phenyl}-1,3-oxazole-4-carboxylate] | 5.9
3 | COc1cc2c(cc1OCc1ccccc1)CCNC2/C=C/c1ccccc1NC(=O)OC(C)(C)C (stereo not drawn) [CW, tert-butyl N-{2-[(E)-2-[6-(benzyloxy)-7-methoxy-1,2,3,4-tetrahydroisoquinolin-1-yl]ethenyl]phenyl}carbamate] | 23.6
4 | COc1cc2c(cc1OCc1ccccc1)CCNC2/C=C/c1scnc1C (stereo not drawn) [DY, 6-(benzyloxy)-7-methoxy-1-[(E)-2-(4-methyl-1,3-thiazol-5-yl)ethenyl]-1,2,3,4-tetrahydroisoquinoline] | 21.6
5 | COc1ccc(/C=C/C2NCCc3cc(OCc4ccccc4)c(OC)cc32)cc1COCC(F)(F)F (stereo not drawn) [EO, 6-(benzyloxy)-7-methoxy-1-[(E)-2-{4-methoxy-3-[(2,2,2-trifluoroethoxy)methyl]phenyl}ethenyl]-1,2,3,4-tetrahydroisoquinoline] | 1.94
6 | COc1cc2c(cc1OCc1ccccc1)CCNC2c1ccccc1CNC(=O)OC(C)(C)C (stereo not drawn) [AZ, tert-butyl N-({2-[6-(benzyloxy)-7-methoxy-1,2,3,4-tetrahydroisoquinolin-1-yl]phenyl}methyl)carbamate] | 9.48
7 | COc1cc2c(cc1OCc1ccccc1)CCNC2/C=C/c1c[nH]c2ccccc12 (stereo not drawn) [CJ, 6-(benzyloxy)-1-[(E)-2-(1H-indol-3-yl)ethenyl]-7-methoxy-1,2,3,4-tetrahydroisoquinoline] | 6.55
8 | COc1cc2c(cc1OCc1ccccc1)CCNC2/C=C/c1cc(OC(F)(F)F)ccc1C (stereo not drawn) [BH, 6-(benzyloxy)-7-methoxy-1-[(E)-2-[2-methyl-5-(trifluoromethoxy)phenyl]ethenyl]-1,2,3,4-tetrahydroisoquinoline] | 5.3
9 | COc1cc2c(cc1OCc1ccccc1)CCNC2/C=C/c1cc(C)c(OC)c(C(F)(F)F)c1 (stereo not drawn) [CZ, 6-(benzyloxy)-7-methoxy-1-[(E)-2-[4-methoxy-3-methyl-5-(trifluoromethyl)phenyl]ethenyl]-1,2,3,4-tetrahydroisoquinoline] | 4
10 | COc1cc2c(cc1OCc1ccccc1)CCNC2/C=C/c1cc2ccccc2s1 (stereo not drawn) [DU, 1-[(E)-2-(1-benzothiophen-2-yl)ethenyl]-6-(benzyloxy)-7-methoxy-1,2,3,4-tetrahydroisoquinoline] | 16.3
11 | COc1ccc(/C=C/C2NCCc3cc(OCc4ccccc4)c(OC)cc32)c(OC)c1 (stereo not drawn) [AV, 6-(benzyloxy)-1-[(E)-2-(2,4-dimethoxyphenyl)ethenyl]-7-methoxy-1,2,3,4-tetrahydroisoquinoline] | 5.5
12 | COc1cc2c(cc1OCc1ccccc1)CCNC2/C=C/c1c(C)ccc2c1OCCC2 (stereo not drawn) [CC, 6-(benzyloxy)-7-methoxy-1-[(E)-2-(7-methyl-3,4-dihydro-2H-1-benzopyran-8-yl)ethenyl]-1,2,3,4-tetrahydroisoquinoline] | 5.44
13 | CCn1cc(/C=C/C2NCCc3cc(OCc4ccccc4)c(OC)cc32)cn1 (stereo not drawn) [Example AL, 6-Benzyloxy-1-[(E)-2-(1-ethylpyrazol-4-yl)vinyl]-7-methoxy-1,2,3,4-tetrahydroisoquinoline] | 24.2
14 | COc1cc2c(cc1OCc1ccccc1)CCNC2/C=C/c1cccc(C(F)(F)F)c1 (stereo not drawn) [DB, 6-(benzyloxy)-7-methoxy-1-[(E)-2-[3-(trifluoromethyl)phenyl]ethenyl]-1,2,3,4-tetrahydroisoquinoline] | 10
15 | COc1cc2c(cc1OCc1ccccc1)CCNC2/C=C/c1sccc1C (stereo not drawn) [BS, 6-(benzyloxy)-7-methoxy-1-[(E)-2-(3-methylthiophen-2-yl)ethenyl]-1,2,3,4-tetrahydroisoquinoline] | 11.3
16 | COc1cc2c(cc1OCc1ccccc1)CCNC2/C=C/c1cc2c(cc1C)OCC2 (stereo not drawn) [CG, 6-(benzyloxy)-7-methoxy-1-[(E)-2-(6-methyl-2,3-dihydro-1-benzofuran-5-yl)ethenyl]-1,2,3,4-tetrahydroisoquinoline] | 4.8
17 | COc1ccc(/C=C/C2NCCc3cc(OCc4ccccc4)c(OC)cc32)cc1Cn1ccnc1C (stereo not drawn) [EN, 6-(benzyloxy)-7-methoxy-1-[(E)-2-{4-methoxy-3-[(2-methyl-1H-imidazol-1-yl)methyl]phenyl}ethenyl]-1,2,3,4-tetrahydroisoquinoline] | 4.03
18 | CCOC(=O)c1coc(-c2cccc(/C=C/C3NCCc4cc(OCc5ccccc5)c(OC)cc43)c2)n1 (stereo not drawn) [EF, ethyl 2-{3-[(E)-2-[6-(benzyloxy)-7-methoxy-1,2,3,4-tetrahydroisoquinolin-1-yl]ethenyl]phenyl}-1,3-oxazole-4-carboxylate] | 5.9
19 | COc1cc2c(cc1OCc1ccccc1)CCNC2/C=C/c1ccc2cccnc2c1 (stereo not drawn) [DL, 7-[(E)-2-[6-(benzyloxy)-7-methoxy-1,2,3,4-tetrahydroisoquinolin-1-yl]ethenyl]quinoline] | 7
20 | COc1cc2c(cc1OCc1ccccc1)CCNC2/C=C/c1ccccc1N1CCCCC1 (stereo not drawn) [DX, 6-(benzyloxy)-7-methoxy-1-[(E)-2-[2-(piperidin-1-yl)phenyl]ethenyl]-1,2,3,4-tetrahydroisoquinoline] | 5.38
21 | COc1cc2c(cc1OCc1ccccc1)CCNC2c1cc(OCc2ccccc2)c(OC)cc1C (stereo not drawn) [AY, 6-(benzyloxy)-1-[5-(benzyloxy)-4-methoxy-2-methylphenyl]-7-methoxy-1,2,3,4-tetrahydroisoquinoline] | 5.14
22 | COc1cc2c(cc1OCc1ccccc1)CCNC2/C=C/c1cc(C(C)C)c(OC)cc1C (stereo not drawn) [BW, 6-(benzyloxy)-7-methoxy-1-[(E)-2-[4-methoxy-2-methyl-5-(propan-2-yl)phenyl]ethenyl]-1,2,3,4-tetrahydroisoquinoline] | 1.88
23 | COc1ccc(/C=C/C2NCCc3cc(OCc4ccccc4)c(OC)cc32)cc1 (stereo not drawn) [BJ, 6-(benzyloxy)-7-methoxy-1-[(E)-2-(4-methoxyphenyl)ethenyl]-1,2,3,4-tetrahydroisoquinoline] | 20.9
24 | COc1cc2c(cc1OCc1ccccc1)CCNC2/C=C/c1cc2c(cc1C)OCCO2 (stereo not drawn) [BC, 6-(benzyloxy)-7-methoxy-1-[(E)-2-(7-methyl-2,3-dihydro-1,4-benzodioxin-6-yl)ethenyl]-1,2,3,4-tetrahydroisoquinoline] | 2.43
25 | COc1cc2c(cc1OCc1ccccc1)CCNC2/C=C/c1ccc2c(c1)CCCO2 (stereo not drawn) [CB, 6-(benzyloxy)-1-[(E)-2-(3,4-dihydro-2H-1-benzopyran-6-yl)ethenyl]-7-methoxy-1,2,3,4-tetrahydroisoquinoline] | 5.36

Same assay, conditions: human; mock infected MT-2 cells, 96 hours, AlamarBlue; read-out: CC50

Row | Compound | CC50 at 96 h [µM]
26 | COc1cc2c(cc1OCc1ccccc1)CCNC2/C=C/c1cc(OC)c(OCc2ccccc2)c(OC)c1 (stereo not drawn) [AP, 6-(benzyloxy)-1-[(E)-2-[4-(benzyloxy)-3,5-dimethoxyphenyl]ethenyl]-7-methoxy-1,2,3,4-tetrahydroisoquinoline] | 1.64
27 | COc1cc2c(cc1OCc1ccccc1)CCNC2/C=C/c1ccncc1 (stereo not drawn) [AW, 6-(benzyloxy)-7-methoxy-1-[(E)-2-(pyridin-4-yl)ethenyl]-1,2,3,4-tetrahydroisoquinoline] | 11.4
